{"source": "paper PMC8037182", "about": "“Solvothermal Synthesis of Multiple Dihydropyrimidinones at a Time as Inhibitors of Eg5” (Molecules, 2021)", "tested_on": "Hela cell line", "test": "Cytotoxicity MTS assay, Hela cell line", "format": "cell-based", "details": "for OD490 value, Mean / OD490 value, Well 1 / OD490 value, Well 2 / OD490 value, Well 3: Hela cell line, MTS", "experimental": "The positive compounds (IC50 < 100 μM) obtained from the primary Eg5 motor protein ATPase assay were tested for antiproliferative activity in vitro against Caco-2 cell line, Hela cell line, L929 cell line and T24 cell line by performing MTS assay. Cells were introduced into 96-well plates at a density of 1000 cells per well. After 24 h incubation, the cells were exposed with compounds at final concentrations ranging from 0.5 to 100 µM for 24 h. DMSO was used at a final concentration of 0.025% as blank control, monastrol was used as the positive control. Then 20 µL (CellTiter 96® AQueous One Solution Promega, Madison, WI, USA) reagent was added in each well. After 2 h at 37 °C in a 80% humidified, 5% CO2 atmosphere, the absorbance at 490 nm was recorded using a microplate reader (BIO-RAD iMark^TM). The results were obtained in three independent duplicate experiments. The primary data were shown in Supplementary Materials Tables S4–S7. The IC50 values for these compounds were calculated from a non-linear regression graph plotted between the percentage of cell viability and concentration with SPSS17.0 software.", "data": [{"smiles": "CCOC(=O)c1[nH]c(C2NC(=O)NC(C)=C2C(=O)Nc2ccc(Cl)cc2)c(C(=O)OCC)c1C", "note": "(stereo not shown) [D7]", "values": [{"measurement": "OD490 value, Mean", "setting": "0.5μM, first assay", "value": 2.5908}, {"measurement": "OD490 value, Well 1", "setting": "0.5μM, first assay", "value": 2.5621}, {"measurement": "OD490 value, Well 2", "setting": "0.5μM, first assay", "value": 2.6393}, {"measurement": "OD490 value, Well 3", "setting": "0.5μM, first assay", "value": 2.5711}, {"measurement": "OD490 value, Mean", "setting": "0.5μM, second assay", "value": 2.6768}, {"measurement": "OD490 value, Well 1", "setting": "0.5μM, second assay", "value": 2.5588}, {"measurement": "OD490 value, Well 2", "setting": "0.5μM, second assay", "value": 2.6974}, {"measurement": "OD490 value, Well 3", "setting": "0.5μM, second assay", "value": 2.7741}, {"measurement": "OD490 value, Mean", "setting": "0.5μM, third assay", "value": 2.6551}, {"measurement": "OD490 value, Well 1", "setting": "0.5μM, third assay", "value": 2.6545}, {"measurement": "OD490 value, Well 2", "setting": "0.5μM, third assay", "value": 2.6358}, {"measurement": "OD490 value, Well 3", "setting": "0.5μM, third assay", "value": 2.6749}, {"measurement": "OD490 value, Mean", "setting": "1μM, first assay", "value": 2.4582}, {"measurement": "OD490 value, Well 1", "setting": "1μM, first assay", "value": 2.4152}, {"measurement": "OD490 value, Well 2", "setting": "1μM, first assay", "value": 2.4632}, {"measurement": "OD490 value, Well 3", "setting": "1μM, first assay", "value": 2.4962}, {"measurement": "OD490 value, Mean", "setting": "1μM, second assay", "value": 2.6058}, {"measurement": "OD490 value, Well 1", "setting": "1μM, second assay", "value": 2.8624}, {"measurement": "OD490 value, Well 2", "setting": "1μM, second assay", "value": 2.6541}, {"measurement": "OD490 value, Well 3", "setting": "1μM, second assay", "value": 2.3010}, {"measurement": "OD490 value, Mean", "setting": "1μM, third assay", "value": 2.6692}, {"measurement": "OD490 value, Well 1", "setting": "1μM, third assay", "value": 2.6686}, {"measurement": "OD490 value, Well 2", "setting": "1μM, third assay", "value": 2.5980}, {"measurement": "OD490 value, Well 3", "setting": "1μM, third assay", "value": 2.7410}, {"measurement": "OD490 value, Mean", "setting": "10μM, first assay", "value": 2.5790}, {"measurement": "OD490 value, Well 1", "setting": "10μM, first assay", "value": 2.7201}, {"measurement": "OD490 value, Well 2", "setting": "10μM, first assay", "value": 2.4926}, {"measurement": "OD490 value, Well 3", "setting": "10μM, first assay", "value": 2.5244}, {"measurement": "OD490 value, Mean", "setting": "10μM, second assay", "value": 2.5914}, {"measurement": "OD490 value, Well 1", "setting": "10μM, second assay", "value": 2.3698}, {"measurement": "OD490 value, Well 2", "setting": "10μM, second assay", "value": 2.8523}, {"measurement": "OD490 value, Well 3", "setting": "10μM, second assay", "value": 2.5521}, {"measurement": "OD490 value, Mean", "setting": "10μM, third assay", "value": 2.6067}, {"measurement": "OD490 value, Well 1", "setting": "10μM, third assay", "value": 2.5657}, {"measurement": "OD490 value, Well 2", "setting": "10μM, third assay", "value": 2.6845}, {"measurement": "OD490 value, Well 3", "setting": "10μM, third assay", "value": 2.5698}, {"measurement": "OD490 value, Mean", "setting": "25μM, first assay", "value": 2.6458}, {"measurement": "OD490 value, Well 1", "setting": "25μM, first assay", "value": 2.7056}, {"measurement": "OD490 value, Well 2", "setting": "25μM, first assay", "value": 2.6228}, {"measurement": "OD490 value, Well 3", "setting": "25μM, first assay", "value": 2.6091}, {"measurement": "OD490 value, Mean", "setting": "25μM, second assay", "value": 2.6325}, {"measurement": "OD490 value, Well 1", "setting": "25μM, second assay", "value": 2.5901}, {"measurement": "OD490 value, Well 2", "setting": "25μM, second assay", "value": 2.6301}, {"measurement": "OD490 value, Well 3", "setting": "25μM, second assay", "value": 2.6774}, {"measurement": "OD490 value, Mean", "setting": "25μM, third assay", "value": 2.6849}, {"measurement": "OD490 value, Well 1", "setting": "25μM, third assay", "value": 2.6987}, {"measurement": "OD490 value, Well 2", "setting": "25μM, third assay", "value": 2.6457}, {"measurement": "OD490 value, Well 3", "setting": "25μM, third assay", "value": 2.7102}, {"measurement": "OD490 value, Mean", "setting": "50μM, first assay", "value": 2.4563}, {"measurement": "OD490 value, Well 1", "setting": "50μM, first assay", "value": 2.5239}, {"measurement": "OD490 value, Well 2", "setting": "50μM, first assay", "value": 2.4847}, {"measurement": "OD490 value, Well 3", "setting": "50μM, first assay", "value": 2.3602}, {"measurement": "OD490 value, Mean", "setting": "50μM, second assay", "value": 2.2166}, {"measurement": "OD490 value, Well 1", "setting": "50μM, second assay", "value": 2.3365}, {"measurement": "OD490 value, Well 2", "setting": "50μM, second assay", "value": 2.0124}, {"measurement": "OD490 value, Well 3", "setting": "50μM, second assay", "value": 2.3010}, {"measurement": "OD490 value, Mean", "setting": "50μM, third assay", "value": 2.4441}, {"measurement": "OD490 value, Well 1", "setting": "50μM, third assay", "value": 2.4565}, {"measurement": "OD490 value, Well 2", "setting": "50μM, third assay", "value": 2.6544}, {"measurement": "OD490 value, Well 3", "setting": "50μM, third assay", "value": 2.2214}, {"measurement": "OD490 value, Mean", "setting": "100μM, first assay", "value": 1.9660}, {"measurement": "OD490 value, Well 1", "setting": "100μM, first assay", "value": 1.8876}, {"measurement": "OD490 value, Well 2", "setting": "100μM, first assay", "value": 1.9083}, {"measurement": "OD490 value, Well 3", "setting": "100μM, first assay", "value": 2.1021}, {"measurement": "OD490 value, Mean", "setting": "100μM, second assay", "value": 1.8447}, {"measurement": "OD490 value, Well 1", "setting": "100μM, second assay", "value": 1.6754}, {"measurement": "OD490 value, Well 2", "setting": "100μM, second assay", "value": 1.8601}, {"measurement": "OD490 value, Well 3", "setting": "100μM, second assay", "value": 1.9987}, {"measurement": "OD490 value, Mean", "setting": "100μM, third assay", "value": 1.9092}, {"measurement": "OD490 value, Well 1", "setting": "100μM, third assay", "value": 1.9698}, {"measurement": "OD490 value, Well 2", "setting": "100μM, third assay", "value": 1.9033}, {"measurement": "OD490 value, Well 3", "setting": "100μM, third assay", "value": 1.8546}, {"measurement": "IC50", "setting": "MTS assay, 24 h exposure", "value": "> 150", "unit": "µM"}]}]}
